The values below come from patent publication US20170334852A1, “CATIONIC LIPID” (Eisai R&D Management Co., Ltd., priority 2014, published 2017).

The nature of data set [1]: Particle diameter on storage in sealed vial at 4° C., analysis (7). The class given is physicochemical. The settings on record: lipid complex stored for a certain period. As to the method:
In the compositions of Examples 46 to 52, each composition was stored in a sealed vial at 4° C. and the particle diameter (Z-average and polydispersity index) before the strorage, after 3 months from the storage and after 6 months from the storage was measured in the same manner as that for the composition of Example 29.

Data set [2] can be described thus: Particle diameter after mixing, PBS dialysis and storage at 4° C., analysis (9). The settings on record: storage period, compared to the composition of Comparative Example 3. The data set is classed as physicochemical. On the procedure:
In the compositions of Examples 53 and 54 and Comparative Example 3, the particle diameter (Z-average and polydispersity index) was measured immediately after the lipid complex was generated by mixing the siRNA diluent and the lipid solution in the preparation of each composition, after the lipid complex was dialyzed into PBS, and after storage in the sealed vial at 4° C. for 2 months and 6 months, using a particle diameter-measuring device (trade name “Zetasizer Nano ZS”, manufactured by Malvern Instruments Ltd.).

As to `CCCCCCCCCCC(CCCCCCCCC(=O)OCC(CCCC)CCCCCC)OC(=O)C1CCN(C)CC1` (centres unmarked) [YS-120, 1-((2-butyloctyl)oxy)-1-oxoicosane-10-yl-1-methylpiperidine-4-carboxylate], the “Increase in particle diameter of the lipid complex during storage (in words)” value (“Increase in particle diameter” for short) in data set [1] is reported as “stability is high”; in data set [2] it was “an increase in particle diameter of the lipid complex was suppressed”.
Take `CCCCC/C=C\C(CCCC)COC(=O)CCCCCCCCC(CCCCCCCCCC)OC(=O)C1CCN(C)CC1` (centres unmarked) [YS-122, (Z)-1-((2-butylnon-3-en-1-yl)oxy)-1-oxoicosane-10-yl-1-methylpiperidine-4-carboxylate]: the “Increase in particle diameter” value in data set [1] is reported as “stability is high”.
On the same count and under the same terms, for `CCCCCCCCCCC(CCCCCCCCC(=O)OC/C=C\CC(CCC)CCCC)OC(=O)C1CCN(C)CC1` (centres unmarked) [YS-123, (Z)-1-oxo-1-((5-propylnon-2-en-1-yl)oxy)icosane-10-yl-1-methylpiperidine-4-carboxylate] the value was “stability is high”.
With `CCCCCCCCCCC(CCCCCCCCC(=O)OCCC(CCCCC)CCCCC)OC(=O)C1CCN(C)CC1` (centres unmarked) [YS-124, 1-oxo-1-((3-pentyloctyl)oxy)icosane-10-yl-1-methylpiperidine-4-carboxylate], the “Increase in particle diameter” value is reported as “stability is high” in data set [1] and “an increase in particle diameter of the lipid complex was suppressed” in data set [2].
As for `CCCCCCCCCCC(CCCCCCCCC(=O)OCC(CCC)CC(CCC)CCC)OC(=O)C1CCN(C)CC1` (centres unmarked) [YS-125, 1-((2,4-dipropylheptyl)oxy)-1-oxoicosane-10-yl-1-methylpiperidine-4-carboxylate], the “Increase in particle diameter” value in data set [1] was “stability is high”.
On the same count and under the same terms, then `CCCCCCCCCCC(CCCCCCCCC(=O)OCCC(CCC)C(CCC)CCC)OC(=O)C1CCN(C)CC1` (centres unmarked) [YS-126, 1-((3,4-dipropylheptyl)oxy)-1-oxoicosane-10-yl-1-methylpiperidine-4-carboxylate], with “stability is high”.
